Source: patent USRE47302E1 (ONYX THERAPEUTICS INC., priority 2013, dated 2019)
≈ marks a conversion by molar mass, not a printed value.

How the values were obtained:
[1] = target: human 20S immunoproteasome (i20S) (Homo sapiens, UniProt P28062); experiment: 20S proteasome assay, chymotrypsin-like activity (succinyl-Leu-Leu-Val-Tyr-AMC), i20S; format: biochemical; settings: LLVY substrate, 1 h continuous
Excerpt: (§1) Assay buffer consisted of TE buffer [20 mmol/L Tris (pH 8.0), 0.5 mmol/L EDTA] with (20S) or without (cell lysate) 0.03% SDS. Reactions were initiated by enzyme or lysate addition and monitored for AMC product formation at 27jC with a plate-based spectofluorometer (Tecan).

[2] = target: T1, immunoproteasome subunit LMP7 (Homo sapiens, UniProt P28062); experiment: Proteasome active-site ELISA (ProCISE), LMP7, MOLT-4 lysate; format: biochemical; settings: MOLT4 lysate, 1 h continuous treatment, 25° C.
T1 construct: Lysate from the human acute lymphoblastic leukemia cell line, MOLT-4; endogenous in cells; host or cells: MOLT-4
Procedure, shortened: (§2)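 MOLT-4 cell lysate treated 1 h at 25 °C with compound; probe-bound subunits denatured, pulled down on streptavidin beads and detected with subunit-specific antibodies plus HRP chemiluminescence.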

[3] = target: human constitutive 20S proteasome (c20S) (Homo sapiens, UniProt P28074); experiment: 20S proteasome assay, chymotrypsin-like activity (succinyl-Leu-Leu-Val-Tyr-AMC), c20S; format: biochemical; settings: LLVY substrate, 1 h continuous
Excerpt: as §1

[4] = Solubility pH 7; settings: pH 7, aqueous buffer
[5] = target: T2, proteasome subunit β5 (beta5) (Homo sapiens, UniProt P28074); experiment: Proteasome active-site ELISA (ProCISE), beta5, MOLT-4 lysate; format: biochemical; settings: MOLT4 lysate, human, 1 h continuous treatment, 25° C.
T2 construct: Lysate from the human acute lymphoblastic leukemia cell line, MOLT-4; endogenous in cells; host or cells: MOLT-4
Procedure, shortened: as §2

Row | Structure (SMILES) | IC50 [1] | IC50 [2] | IC50 [3] | solubility [4] | IC50 [5]
1 | C[C@@H](NC(=O)C1CCOCC1)C(=O)N[C@@H](Cc1ccc(S(C)(=O)=O)cc1)C(=O)N[C@@H](CC1CCCC1)C(=O)[C@@]1(C)CO1 [Compound C-1051, N-((R)-1-(((S)-1-(((S)-3-cyclopentyl-1-((R)-2-methyloxiran-2-yl)-1-oxopropan-2-yl)amino)-3-(4-(methylsulfonyl)phenyl)-1-oxopropan-2-yl)amino)-1-oxopropan-2-yl)tetrahydro-2H-pyran-4-carboxamide] | 0.0451 µM | 0.0908 µM | 0.978 µM | 702 µg/mL (≈ 1160 µM) | 0.705 µM
2 | COc1ccc(C[C@H](NC(=O)[C@@H](C)NC(=O)C2CC3(COC3)C2)C(=O)N[C@@H](CC2=CCCC2)C(=O)[C@@]2(C)CO2)cc1 [Compound C-1063, N-((R)-1-(((S)-1-(((S)-3-(cyclopent-1-en-1-yl)-1-((R)-2-methyloxiran-2-yl)-1-oxopropan-2-yl)amino)-3-(4-methoxyphenyl)-1-oxopropan-2-yl)amino)-1-oxopropan-2-yl)-2-oxaspiro[3.3]heptane-6-carboxamide] | 0.0149 µM | 0.0907 µM | 0.169 µM | 1310 µg/mL (≈ 2310 µM) | 0.443 µM
3 | COc1ccc(C[C@H](NC(=O)[C@@H](C)NC(=O)C2CC(=O)C2)C(=O)N[C@@H](CC2CCCC2)C(=O)[C@@]2(C)CO2)cc1 [Compound C-1029, N-((R)-1-(((S)-1-(((S)-3-cyclopentyl-1-((R)-2-methyloxiran-2-yl)-1-oxopropan-2-yl)amino)-3-(4-methoxyphenyl)-1-oxopropan-2-yl)amino)-1-oxopropan-2-yl)-3-oxocyclobutanecarboxamide] | 0.214 µM | 0.303 µM | 4.11 µM | 822 µg/mL (≈ 1520 µM) | 3.79 µM
4 | COc1ccc(C[C@H](NC(=O)[C@H](C)NC(=O)CN2CCOCC2)C(=O)N[C@@H](Cc2ccccc2)C(=O)[C@@]2(C)CO2)cc1OC [Compound C-1160, (S)-3-(3,4-dimethoxyphenyl)-N-((S)-1-((R)-2-methyloxiran-2-yl)-1-oxo-3-phenylpropan-2-yl)-2-((S)-2-(2-morpholinoacetamido)propanamido)propanamide] | 0.246 µM | 0.157 µM | 0.909 µM | 1530 µg/mL (≈ 2500 µM) | 0.66 µM
5 | COc1ccc(C[C@H](NC(=O)[C@H](C)NC(=O)CN2CCOCC2)C(=O)N[C@@H](Cc2ccc(O)cc2)C(=O)[C@@]2(C)CO2)cc1 [Compound C-1162, (S)-N-((S)-3-(4-hydroxyphenyl)-1-((R)-2-methyloxiran-2-yl)-1-oxopropan-2-yl)-3-(4-methoxyphenyl)-2-((S)-2-(2-morpholinoacetamido)propanamido)propanamide] | 0.0279 µM | 0.0434 µM | 1.61 µM | 1270 µg/mL (≈ 2130 µM) | 0.595 µM
6 | COc1ccc(C[C@H](NC(=O)[C@@H](C)NC(=O)C2COC2)C(=O)N[C@@H](CC2=CCCC2)C(=O)[C@@]2(C)CO2)cc1 [Compound C-1055, N-((R)-1-(((S)-1-(((S)-3-(cyclopent-1-en-1-yl)-1-((R)-2-methyloxiran-2-yl)-1-oxopropan-2-yl)amino)-3-(4-methoxyphenyl)-1-oxopropan-2-yl)amino)-1-oxopropan-2-yl)oxetane-3-carboxamide] | 0.149 µM | 0.953 µM | 4.44 µM | 1300 µg/mL (≈ 2460 µM) | 7.15 µM
7 | COc1ccc(C[C@H](NC(=O)[C@@H](C)NC(=O)[C@H]2C[C@H](O)C2)C(=O)N[C@@H](CC2CCCC2)C(=O)[C@@]2(C)CO2)cc1 [Compound C-1041, (1r,3R)-N-((R)-1-(((S)-1-(((S)-3-cyclopentyl-1-((R)-2-methyloxiran-2-yl)-1-oxopropan-2-yl)amino)-3-(4-methoxyphenyl)-1-oxopropan-2-yl)amino)-1-oxopropan-2-yl)-3-hydroxycyclobutanecarboxamide] | 0.232 µM | 0.44 µM | 7.03 µM | 1830 µg/mL (≈ 3360 µM) | 12.5 µM
8 | C[C@H](NC(=O)CN1CCOCC1)C(=O)N[C@@H](Cc1coc2ccccc12)C(=O)N[C@@H](CC1CCCC1)C(=O)[C@@]1(C)CO1 [Compound C-1015, (S)-3-(benzofuran-3-yl)-N-((S)-3-cyclopentyl-1-((R)-2-methyloxiran-2-yl)-1-oxopropan-2-yl)-2-((S)-2-(2-morpholinoacetamido)propanamido)propanamide] | 0.167 µM | 0.498 µM | 0.506 µM | 212 µg/mL (≈ 364 µM) | 1.14 µM
9 | COc1ccc(C[C@H](NC(=O)[C@H](CO)NC(=O)CN2CCOCC2)C(=O)N[C@@H](Cc2ccccc2)C(=O)[C@@]2(C)CO2)cc1 [Compound C-1159, (S)-3-hydroxy-N-((S)-3-(4-methoxyphenyl)-1-(((S)-1-((R)-2-methyloxiran-2-yl)-1-oxo-3-phenylpropan-2-yl)amino)-1-oxopropan-2-yl)-2-(2-morpholinoacetamido)propanamide] | 0.043 µM | 0.0431 µM | 0.473 µM | 1910 µg/mL (≈ 3210 µM) | 0.454 µM
10 | COc1ccc(C[C@H](NC(=O)[C@@H](C)NC(=O)C2CCOCC2)C(=O)N[C@@H](CC2CCCC2)C(=O)[C@@]2(C)CO2)cc1O [Compound C-1061, N-((R)-1-(((S)-1-(((S)-3-cyclopentyl-1-((R)-2-methyloxiran-2-yl)-1-oxopropan-2-yl)amino)-3-(3-hydroxy-4-methoxyphenyl)-1-oxopropan-2-yl)amino)-1-oxopropan-2-yl)tetrahydro-2H-pyran-4-carboxamide] | 0.0154 µM | 0.0708 µM | 0.756 µM | 2050 µg/mL (≈ 3580 µM) | 0.978 µM

The remaining lines, values ahead:

Row | IC50 [1] | IC50 [2] | IC50 [3] | solubility [4] | IC50 [5] | Structure (SMILES)
11 | 0.0535 µM | 0.116 µM | 0.277 µM | 1280 µg/mL (≈ 2250 µM) | 0.765 µM | C[C@H](NC(=O)CN1CCOCC1)C(=O)N[C@@H](Cc1ccc(C#N)cc1)C(=O)N[C@@H](CC1CCCC1)C(=O)[C@@]1(C)CO1 [Compound C-1050, (S)-3-(4-cyanophenyl)-N-((S)-3-cyclopentyl-1-((R)-2-methyloxiran-2-yl)-1-oxopropan-2-yl)-2-((S)-2-(2-morpholinoacetamido)propanamido)propanamide]
12 | 0.17 µM | 0.184 µM | 0.656 µM | 5840 µg/mL (≈ 9910 µM) | 1.73 µM | COc1ccc(C[C@H](NC(=O)[C@H](C)NC(=O)CN2CCOCC2)C(=O)N[C@@H](CC2CCCC2)C(=O)[C@@]2(C)CO2)cc1O [Compound C-1018, (S)-N-((S)-3-cyclopentyl-1-((R)-2-methyloxiran-2-yl)-1-oxopropan-2-yl)-3-(3-hydroxy-4-methoxyphenyl)-2-((S)-2-(2-morpholinoacetamido)propanamido)propanamide]
13 | 0.0925 µM | 0.167 µM | 0.47 µM | 1720 µg/mL (≈ 2940 µM) | 1.28 µM | C[C@H](NC(=O)CN1CCOCC1)C(=O)N[C@@H](Cc1ccc2c(c1)OCO2)C(=O)N[C@@H](CC1CCCC1)C(=O)[C@@]1(C)CO1 [Compound C-1012, (S)-3-(benzo[d][1,3]dioxol-5-yl)-N-((S)-3-cyclopentyl-1-((R)-2-methyloxiran-2-yl)-1-oxopropan-2-yl)-2-((S)-2-(2-morpholinoacetamido)propanamido)propanamide]
14 | 0.0988 µM | 0.556 µM | 1.55 µM | 1120 µg/mL (≈ 1950 µM) | 6.97 µM | COc1ccc(C[C@H](NC(=O)[C@@H](C)NC(=O)CC2CCOCC2)C(=O)N[C@@H](CC2CCCC2)C(=O)[C@@]2(C)CO2)cc1 [Compound C-1011, (S)-N-((S)-3-cyclopentyl-1-((R)-2-methyloxiran-2-yl)-1-oxopropan-2-yl)-3-(4-methoxyphenyl)-2-((R)-2-(2-(tetrahydro-2H-pyran-4-yl)acetamido)propanamido)propanamide]
15 | 0.0668 µM | 0.153 µM | 0.305 µM | 3510 µg/mL (≈ 5990 µM) | 0.796 µM | C[C@H](NC(=O)CN1CCOCC1)C(=O)N[C@@H](Cc1ccc(C(N)=O)cc1)C(=O)N[C@@H](CC1CCCC1)C(=O)[C@@]1(C)CO1 [Compound C-1049, 4-((S)-3-(((S)-3-cyclopentyl-1-((R)-2-methyloxiran-2-yl)-1-oxopropan-2-yl)amino)-2-((S)-2-(2-morpholinoacetamido)propanamido)-3-oxopropyl)benzamide]
16 | 0.0704 µM | 0.185 µM | 0.519 µM | 1760 µg/mL (≈ 3080 µM) | 1.94 µM | COc1ccc(C[C@H](NC(=O)[C@H](C)NC(=O)CN2CCOCC2)C(=O)N[C@@H](CC2CCCC2)C(=O)[C@@]2(C)CO2)cc1 [Compound C-1005, (S)-N-((S)-3-cyclopentyl-1-((R)-2-methyloxiran-2-yl)-1-oxopropan-2-yl)-3-(4-methoxyphenyl)-2-((S)-2-(2-morpholinoacetamido)propanamido)propanamide]
17 | 0.0765 µM | 0.131 µM | 0.667 µM | 2860 µg/mL (≈ 4600 µM) | 0.805 µM | C[C@H](NC(=O)CN1CCOCC1)C(=O)N[C@@H](Cc1ccc(S(N)(=O)=O)cc1)C(=O)N[C@@H](CC1CCCC1)C(=O)[C@@]1(C)CO1 [Compound C-1054, (S)-N-((S)-3-cyclopentyl-1-((R)-2-methyloxiran-2-yl)-1-oxopropan-2-yl)-2-((S)-2-(2-morpholinoacetamido)propanamido)-3-(4-sulfamoylphenyl)propanamide]
